# Non-standard residues stand in square brackets, D forms with d. Residues, ends and D or L forms follow the SMILES beside them.
# How the values were obtained:
# U-87MG cells [1] = assay: Morphological analysis of apoptosis by electron microscopy; type: cell-based, human; settings: 6 h, serum-free medium, Suppl Fig 2C
# Experimental: Supplementary Figure 2: Mode of action of VDAC1-based peptides. […]
# detachment. SH-SY5Y cells (4×10^4/ml) were grown on cover slips, transfected with plasmid pEGFP-HK-I and after 24 h, were incubated […]
# The final DMSO concentration in control and peptide-treated cells was 0.07%. Fixed cells were stained with DAPI and visualized by confocal microscopy (Olympus 1X81). Arrows indicate cells […]
# showing diffusion of HK-I-GFP. B-C. […] B. SH-SY5Y cells were treated with the indicated […]
# Arrows and arrowheads indicate cells with membrane blebbing (early apoptotic state) and late apoptotic states, respectively. C. Morphological analysis of apoptosis by electron microscopy (EM). For transmission EM, U-87MG cells (1.6 x10^6 /ml) were incubated with the indicated concentrations of D-ΔN-Ter-Antp peptide or DMSO (0.3% final concentration) for 6 h in serum-free medium. Cells were pelleted and fixed in Karnovsky’s fixative (2% paraformaldehyde, 2.5% glutaraldehyde in 0.1 M cacodylate buffer, pH 7.4) for 10 minutes at room temperature and then in fresh fixative for 3.5 days in the cold. Following buffer rinses, the cells were incubated with 1% osmium tetroxide in 0.1 M cacodylate buffer, dehydrated in an ethanol series, incubated with epoxy propane and embedded in Araldite resin. […]
# G7 stem cells = assay: Apoptosis by FITC-Annexin V/PI staining and flow cytometry, G7; type: cell-based, GBM patient; settings: 3 h at 37°C, Fig 6G-H
# Experimental: (§1) Sections were also hematoxylin-stained and visualized by microscopy. B. Tissue lysates obtained from controls and several TF-D-LP4-TTs were immunoblotted for Nestin, Sox2, NGFR, CD133, and Klf4. C. Quantitative analysis of immunoblots is shown (n=2-4). D. Immunoblot analysis of, Klf4, Sox2, Nestin and Musashi expression in U-87MG and G7 cell lines, using specific antibodies. E. Quantitative analysis of immunoblots. […] G. G7 (·) and U-87MG cells (○) (2×10^5) were incubated for 3 h with the DMSO (0.15%) or with the indicated concentration of Retro-Tf-D-LP4 peptide in serum-free growth medium at 37°C and then subjected to FITC-Annexin V/PI staining and flow cytometry analysis. H. Representative FACS analysis of DMSO- (left) and 5 μM of Retro-Tf-D-LP4- (right) treated G7 or U-87MG cells.
# (§2) Cells (6×10^5 /ml) were incubated in 500 μl serum-free medium with the peptide of interest for 6 h at 37°C in the presence of 5% CO2. The cells were then trypsinized, centrifuged (1500xg, 5 min), washed with PBS and analyzed for cell death using propidium iodide (PI) staining and flow cytometer (Beckton-Dickinson, San Jose, CA) and BD CellQuest Pro software. Apoptotic cell death was also analyzed by PI and annexin V-FITC staining, and by acridine orange and ethidium bromide staining and light microscopy (Olympus LX2-KSP).
# U-87MG cells [2] = assay: Apoptosis by FITC-Annexin V/PI staining and flow cytometry, U-87MG; type: cell-based, human; settings: 3 h at 37°C, Fig 6G-H
# Experimental: as §1, §2
Compound,apoptotic morphological changes (electron microscopy) (U-87MG cells [1]),apoptosis of G7 stem cells (G7 stem cells),apoptosis of U-87MG cells (U-87MG cells [2])
CC[C@@H](C)[C@@H](NC(=O)[C@@H](CCCCN)NC(=O)[C@H](NC(=O)[C@@H](CCC(N)=O)NC(=O)[C@@H](CCCNC(=N)N)NC(=O)[C@@H](CC(C)C)NC(=O)CNC(=O)[C@@H](Cc1ccccc1)NC(=O)CNC(=O)[C@@H](Cc1ccc(O)cc1)NC(=O)CNC(=O)[C@@H](CCCCN)NC(=O)[C@H](NC(=O)[C@@H](Cc1ccccc1)NC(=O)[C@H](NC(=O)[C@@H](CC(=O)O)NC(=O)[C@H](N)CCCNC(=N)N)C(C)C)[C@H](C)O)[C@H](C)CC)C(=O)N[C@H](Cc1c[nH]c2ccccc12)C(=O)N[C@H](Cc1ccccc1)C(=O)N[C@H](CCC(N)=O)C(=O)N[C@H](CC(N)=O)C(=O)N[C@H](CCCNC(=N)N)C(=O)N[C@H](CCCNC(=N)N)C(=O)N[C@H](CCSC)C(=O)N[C@H](CCCCN)C(=O)N[C@H](Cc1c[nH]c2ccccc12)C(=O)N[C@H](CCCCN)C(=O)N[C@H](CCCCN)C(=O)O [D-ΔN-Ter-Antp] (H-[dR][dD][dV][dF][dT][dK]G[dY]G[dF]G[dL][dR][dQ][dI][dK][dI][dW][dF][dQ][dN][dR][dR][dM][dK][dW][dK][dK]-OH; N-terminus and C-terminus assumed),"condensation of nuclei, DNA fragmentation, and possible apoptotic body formation",–,–
CC[C@H](C)[C@H](NC(=O)[C@H](Cc1ccc(O)cc1)NC(=O)[C@@H]1CCCN1C(=O)[C@H](CCCNC(=N)N)NC(=O)[C@H](Cc1c[nH]cn1)NC(=O)[C@H](CO)NC(=O)[C@H](Cc1c[nH]c2ccccc12)NC(=O)[C@@H](NC(=O)[C@H](Cc1c[nH]c2ccccc12)NC(=O)[C@H](CCC(=O)O)NC(=O)[C@@H](CCCCN)NC(=O)[C@@H](CCCCN)NC(=O)[C@@H](CC(C)C)NC(=O)[C@@H](CCC(=O)O)NC(=O)[C@H](NC(=O)[C@@H](C)NC(=O)[C@H](NC(=O)[C@@H](CC(N)=O)NC(=O)[C@@H](CC(C)C)NC(=O)[C@@H](C)NC(=O)[C@@H](Cc1c[nH]c2ccccc12)NC(=O)[C@H](NC(=O)[C@@H](C)NC(=O)CNC(=O)[C@@H](CC(N)=O)NC(=O)[C@@H](CO)NC(=O)[C@@H](CC(N)=O)NC(=O)[C@H](CCCCN)NC(=O)[C@H](Cc1c[nH]c2ccccc12)NC(=O)[C@@H](NC(=O)[C@H](Cc1c[nH]c2ccccc12)NC(=O)[C@@H](N)CCCCN)[C@@H](C)O)[C@H](C)O)C(C)C)[C@H](C)O)[C@@H](C)O)C(=O)N[C@@H](C)C(=O)N[C@@H](Cc1c[nH]cn1)C(=O)O [Retro-Tf-D-LP4],–,induces apoptosis,induces apoptosis

# Reference: PMC5458211, “Mitochondrial VDAC1-based peptides: Attacking oncogenic properties in glioblastoma” (Oncotarget, 2017)
